Target: T1, human TRPV4 (Homo sapiens, UniProt Q9HBA0)
T1 construct: expressed in transfected cells; host or cells: BHK/AC9 cells transduced with BacMam virus
Assay: FLIPR assay for hTRPV4 expressed in BHK cells: inhibition of Agonist Compound-induced calcium signal
Type: cell-based
Settings: hTRPV4 in BHK/AC9 cells, FLIPR calcium signal, agonist at EC80; reported as range class; read-out: IC50
Description: FLIPR Assay for hTRPV4 Expressed in BHK Cells:
TRPV4 channel activation results in an influx of divalent and monovalent cations including calcium. The resulting changes in intracellular calcium were monitored using a calcium specific fluorescent dye Fluo-4 (MDS Analytical Technologies). BHK/AC9 cells transduced with BacMam virus expressing the human TRPV4 gene at a MOI of 78 were plated in a 384 well poly-D lysine coated plate (15,000 cells/well in 50 μL culture medium containing DMEM/F12 with 15 mM HEPES, 10% FBS, 1% Penicillin-Streptomycin and 1% L-glutamine). Cells were incubated for 24 hours at 37° C. and 5% CO2. Culture medium was then aspirated using a Tecan plate-washer and replaced with 20 μL/well of dye loading buffer: HBSS, 500 μM Brilliant Black (MDS Analytical Technologies), and 2 μM Fluo-4 AM. Dye loaded plates were then incubated in the dark at room temperature for 1-1.5 hours.

T1 sequence (Q9HBA0 whole entry): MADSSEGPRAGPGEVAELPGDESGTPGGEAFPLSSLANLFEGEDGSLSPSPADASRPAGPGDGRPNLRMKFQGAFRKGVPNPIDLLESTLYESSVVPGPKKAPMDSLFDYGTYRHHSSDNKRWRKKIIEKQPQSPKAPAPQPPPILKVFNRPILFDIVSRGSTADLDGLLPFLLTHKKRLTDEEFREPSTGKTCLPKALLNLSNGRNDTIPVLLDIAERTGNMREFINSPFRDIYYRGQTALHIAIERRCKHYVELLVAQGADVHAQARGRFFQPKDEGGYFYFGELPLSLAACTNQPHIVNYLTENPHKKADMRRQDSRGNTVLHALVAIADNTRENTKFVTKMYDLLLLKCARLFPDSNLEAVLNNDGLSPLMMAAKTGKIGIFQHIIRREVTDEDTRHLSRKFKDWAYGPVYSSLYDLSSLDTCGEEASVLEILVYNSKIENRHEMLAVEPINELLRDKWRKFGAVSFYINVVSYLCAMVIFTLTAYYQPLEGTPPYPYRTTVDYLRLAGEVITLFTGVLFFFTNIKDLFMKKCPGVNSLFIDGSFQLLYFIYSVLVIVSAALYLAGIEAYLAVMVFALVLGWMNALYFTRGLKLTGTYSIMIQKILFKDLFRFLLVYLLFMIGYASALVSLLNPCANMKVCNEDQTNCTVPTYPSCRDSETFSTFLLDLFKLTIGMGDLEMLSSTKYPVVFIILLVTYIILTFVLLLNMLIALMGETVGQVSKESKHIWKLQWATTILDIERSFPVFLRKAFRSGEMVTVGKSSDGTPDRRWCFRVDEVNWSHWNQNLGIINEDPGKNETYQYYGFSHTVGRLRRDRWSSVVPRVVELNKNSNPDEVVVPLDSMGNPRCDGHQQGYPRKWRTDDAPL

IC50 [nM]	Structure (SMILES)
10 to 100	N#Cc1ccc(O[C@H]2CN(S(=O)(=O)c3ccc(C(F)(F)F)cc3Cl)C[C@@]2(O)CO)cn1 [Example 74, 5-(((3S,4R)-1-((2-chloro-4-(trifluoromethyl)phenyl)sulfonyl)-4-hydroxy-4-(hydroxymethyl)pyrrolidin-3-yl)oxy)picolinonitrile]
10 to 100	Cc1ccc(S(=O)(=O)N2C[C@H](Oc3ccc(C#N)nc3)[C@](O)(CO)C2)c(Cl)c1 [Example 75, 5-(((3S,4R)-1-((2-chloro-4-methylphenyl)sulfonyl)-4-hydroxy-4-(hydroxymethyl)pyrrolidin-3-yl)oxy)picolinonitrile]
10 to 100	N#Cc1ccc(O[C@H]2CN(S(=O)(=O)c3c(Cl)cc(Cl)cc3Cl)C[C@@]2(O)CO)cn1 [Example 76, 5-(((3S,4R)-4-hydroxy-4-(hydroxymethyl)-1-((2,4,6-trichlorophenyl)sulfonyl)pyrrolidin-3yl)oxy)picolinonitrile]
10 to 100	N#Cc1ccc(O[C@H]2CN(S(=O)(=O)c3c(Cl)cc(Cl)cc3Cl)C[C@@]2(O)CO)cc1F [Example 77, 2-fluoro-4-(((3S,4R)-4-hydroxy-4-(hydroxymethyl)-1-((2,4,6-trichlorophenyl)sulfonyl)pyrrolidin-3-yl)oxy)benzonitrile]
0.1 to 10	Cc1ccc(S(=O)(=O)N2C[C@H](Oc3ccc(C#N)c(F)c3)[C@](O)(CO)C2)c(Cl)c1 [Example 78, 4-(((3S,4R)-1-((2-chloro-4-methylphenyl)sulfonyl)-4-hydroxy-4-(hydroxymethyl)pyrrolidin-3-yl)oxy)-2-fluorobenzonitrile]
10 to 100	N#Cc1ccc(S(=O)(=O)N2C[C@H](Oc3ccc(C#N)c(F)c3)[C@](O)(CO)C2)cn1 [Example 79, 5-(((3R,4S)-4-(4-cyano-3-fluorophenoxy)-3-hydroxy-3-(hydroxymethyl)pyrrolidin-1-yl)sulfonyl)picolinonitrile]
0.1 to 10	Cc1cc(C#N)ccc1S(=O)(=O)N1C[C@H](Oc2ccc(C#N)c(F)c2)[C@](O)(CO)C1 [Example 80, 4-(((3S,4R)-1-((4-cyano-2-methylphenyl)sulfonyl)-4-hydroxy-4-(hydroxymethyl)pyrrolidin-3-yl)oxy)-2-fluorobenzonitrile]
10 to 100	Cc1cc(C(F)(F)F)ccc1S(=O)(=O)N1C[C@H](Oc2ccc(C#N)c(F)c2)[C@](O)(CO)C1 [Example 81, 2-fluoro-4-(((3S,4R)-4-hydroxy-4-(hydroxymethyl)-1-((2-methyl-4-(trifluoromethyl)phenyl)sulfonyl)pyrrolidin-3-yl)oxy)benzonitrile]
10 to 100	N#Cc1ccc(S(=O)(=O)N2C[C@H](Oc3cc(F)c(C#N)cc3F)[C@](O)(CO)C2)cn1 [Example 82, 5-(((3R,4S)-4-(4-cyano-2,5-difluorophenoxy)-3-hydroxy-3-(hydroxymethyl)pyrrolidin-1-yl)sulfonyl)picolinonitrile]
10 to 100	Cc1nc(C(F)(F)F)ccc1S(=O)(=O)N1C[C@H](Oc2ccc(C#N)c(F)c2)[C@](O)(CO)C1 [Example 83, 2-fluoro-4-(((3S,4R)-4-hydroxy-4-(hydroxymethyl)-1-((2-methyl-6-(trifluoromethyl)pyridin-3-yl)sulfonyl)pyrrolidin-3-yl)oxy)benzonitrile]
10 to 100	N#Cc1ccc(O[C@H]2CN(S(=O)(=O)c3ccc(C(F)(F)F)cn3)C[C@@]2(O)CO)cc1F [Example 84, 2-fluoro-4-(((3S,4R)-4-hydroxy-4-(hydroxymethyl)-1-((5-(trifluoromethyl)pyridin-2-yl)sulfonyl)pyrrolidin-3-yl)oxy)benzonitrile]
10 to 100	N#Cc1ccc(O[C@H]2CN(S(=O)(=O)c3ccccc3Cl)C[C@@]2(O)CO)cc1F [Example 85, 4-(((3S,4R)-1-((2-chlorophenyl)sulfonyl)-4-hydroxy-4-(hydroxymethyl)pyrrolidin-3-yl)oxy)-2-fluorobenzonitrile]
10 to 100	N#Cc1ccc(O[C@H]2CN(S(=O)(=O)c3ccc(Cl)s3)C[C@@]2(O)CO)cc1F [Example 86, 4-(((3S,4R)-1-((5-chlorothiophen-2-yl)sulfonyl)-4-hydroxy-4-(hydroxymethyl)pyrrolidin-3-yl)oxy)-2-fluorobenzonitrile]

The next lines start with the molecule.

Structure (SMILES)	IC50 [nM]
N#Cc1ccc(O[C@H]2CN(S(=O)(=O)c3ccc(Cl)cn3)C[C@@]2(O)CO)c2ccccc12 [Example 57, 4-(((3S,4R)-1-((5-chloropyridin-2-yl)sulfonyl)-4-hydroxy-4-(hydroxymethyl)pyrrolidin-3-yl)oxy)-1-naphthonitrile]	10 to 100
N#Cc1ccc(O[C@H]2CN(S(=O)(=O)c3ccc(Cl)cn3)C[C@@]2(O)CO)cc1F [Example 58, 4-(((3S,4R)-1-((5-chloropyridin-2-yl)sulfonyl)-4-hydroxy-4-(hydroxymethyl)pyrrolidin-3-yl)oxy)-2-fluorobenzonitrile]	10 to 100
N#Cc1ccc(O[C@H]2CN(S(=O)(=O)c3ccc(Cl)c4nonc34)C[C@@]2(O)CO)cc1F [Example 59, 4-(((3S,4R)-1-((7-chlorobenzo[c][1,2,5]oxadiazol-4-yl)sulfonyl)-4-hydroxy-4-(hydroxymethyl)pyrrolidin-3-yl)oxy)-2-fluorobenzonitrile]	10 to 100
N#Cc1ccc(O[C@H]2CN(S(=O)(=O)c3ccccc3C#N)C[C@@]2(O)CO)cc1F [Example 61, 4-(((3S,4R)-1-((2-cyanophenyl)sulfonyl)-4-hydroxy-4-(hydroxymethyl)pyrrolidin-3-yl)oxy)-2-fluorobenzonitrile]	0.1 to 10
N#Cc1ccc(O[C@H]2CN(S(=O)(=O)c3cccnc3C#N)C[C@@]2(O)CO)cc1F [Example 62, 3-(((3R,4S)-4-(4-cyano-3-fluorophenoxy)-3-hydroxy-3-(hydroxymethyl)pyrrolidin-1-yl)sulfonyl)picolinonitrile]	0.1 to 10
N#Cc1ccc(O[C@H]2CN(S(=O)(=O)c3ccc(C(F)(F)F)cc3Cl)C[C@@]2(O)CO)cc1F [Example 63, 4-(((3S,4R)-1-((2-chloro-4-(trifluoromethyl)phenyl)sulfonyl)-4-hydroxy-4-(hydroxymethyl)pyrrolidin-3-yl)oxy)-2-fluorobenzonitrile]	0.1 to 10
COc1ccc(S(=O)(=O)N2C[C@H](Oc3ccc(C#N)c(F)c3)[C@](O)(CO)C2)c(Br)c1 [Example 64, 4-(((3S,4R)-1-((2-bromo-4-methoxyphenyl)sulfonyl)-4-hydroxy-4-(hydroxymethyl)pyrrolidin-3-yl)oxy)-2-fluorobenzonitrile]	10 to 100
N#Cc1ccc(O[C@H]2CN(S(=O)(=O)c3ccc(OC(F)(F)F)cc3Br)C[C@@]2(O)CO)cc1F [Example 65, 4-(((3S,4R)-1-((2-bromo-4-(trifluoromethoxy)phenyl)sulfonyl)-4-hydroxy-4-(hydroxymethyl)pyrrolidin-3-yl)oxy)-2-fluorobenzonitrile]	0.1 to 10
N#Cc1ccc(O[C@H]2CN(S(=O)(=O)c3ccc(OC(F)(F)F)cc3Cl)C[C@@]2(O)CO)cc1F [Example 66, 4-(((3S,4R)-1-((2-chloro-4-(trifluoromethoxy)phenyl)sulfonyl)-4-hydroxy-4-(hydroxymethyl)pyrrolidin-3-yl)oxy)-2-fluorobenzonitrile]	10 to 100
N#Cc1ccc(O[C@H]2CN(S(=O)(=O)c3ccc(Br)cc3C#N)C[C@@]2(O)CO)cc1F [Example 67, 4-(((3S,4R)-1-((4-bromo-2-cyanophenyl)sulfonyl)-4-hydroxy-4-(hydroxymethyl)pyrrolidin-3-yl)oxy)-2-fluorobenzonitrile]	0.1 to 10
N#Cc1ccc(S(=O)(=O)N2C[C@H](Oc3ccc(C#N)c(F)c3)[C@](O)(CO)C2)c(C(F)(F)F)c1 [Example 68, 4-(((3S,4R)-1-((4-cyano-2-(trifluoromethyl)phenyl)sulfonyl)-4-hydroxy-4-(hydroxymethyl)pyrrolidin-3-yl)oxy)-2-fluorobenzonitrile]	10 to 100
N#Cc1ccc(O[C@H]2CN(S(=O)(=O)c3ccc(C(F)(F)F)cc3C#N)C[C@@]2(O)CO)cn1 [Example 69, 5-(((3S,4R)-1-((2-cyano-4-(trifluoromethyl)phenyl)sulfonyl)-4-hydroxy-4-(hydroxymethyl)pyrrolidin-3-yl)oxy)picolinonitrile]	10 to 100
N#Cc1ccc(O[C@H]2CN(S(=O)(=O)c3ccc(C(F)(F)F)cc3)C[C@@]2(O)CO)cc1F [Example 70, 2-fluoro-4-(((3S,4R)-4-hydroxy-4-(hydroxymethyl)-1-((4-(trifluoromethyl)phenyl)sulfonyl)pyrrolidin-3-yl)oxy)benzonitrile]	10 to 100
N#Cc1ccc(S(=O)(=O)N2C[C@H](Oc3ccc(C#N)c(F)c3)[C@](O)(CO)C2)cc1 [Example 71, 4-(((3S,4R)-1-((4-cyanophenyl)sulfonyl)-4-hydroxy-4-(hydroxymethyl)pyrrolidin-3-yl)oxy)-2-fluorobenzonitrile]	10 to 100
CC(=O)c1ccc(S(=O)(=O)N2C[C@H](Oc3ccc(C#N)c(F)c3)[C@](O)(CO)C2)c(C#N)c1 [Example 72, 4-(((3S,4R)-1-((4-acetyl-2-cyanophenyl)sulfonyl)-4-hydroxy-4-(hydroxymethyl)pyrrolidin-3-yl)oxy)-2-fluorobenzonitrile]	10 to 100
N#Cc1ccc(O[C@H]2CN(S(=O)(=O)c3ccc(Cl)cc3Cl)C[C@@]2(O)CO)cn1 [Example 73, 5-(((3S,4R)-1-((2,4-dichlorophenyl)sulfonyl)-4-hydroxy-4-(hydroxymethyl)pyrrolidin-3-yl)oxy)picolinonitrile]	10 to 100

Reference: patent US11229623B2 (GlaxoSmithKline Intellectual Property (No.2) Limited, priority 2016, dated 2022)
